Test results taken from patent US6319702A, “Nucleic acids encoding mutant human carboxypeptidase A enzymes” (Glaxo Wellcome, Inc., priority 1993, dated 2001).
Where two headings read alike, the source gives them in different places.

Assay: Stability and biodistribution of prodrugs in vivo (HPLC of plasma and tissues)
Design: species or system mice (CD-1 nude; BALB/C where indicated)
Conditions: 50 mg/kg i.p. or i.v., CD-1 nude mice
[1] = mouse, cecum, 50 mg/kg, CECUM, 30 min, read-out: stability: percentage of material observed as intact prodrug, cecum
[2] = mouse, kidney, 50 mg/kg, KIDNEY, 30 min, read-out: stability: percentage of material observed as intact prodrug, kidney
[3] = mouse, large intestine, 50 mg/kg, LARGE INTESTINE, 30 min, read-out: stability: percentage of material observed as intact prodrug, large intestine
[4] = mouse, liver, 50 mg/kg, LIVER, 30 min, read-out: stability: percentage of material observed as intact prodrug, liver (converted)
[5] = mouse, plasma, 50 mg/kg, PLASMA, 30 min, read-out: concentration of prodrug in plasma
[6] = mouse, plasma, 50 mg/kg, PLASMA, 30 min, read-out: stability: percentage of material observed as intact prodrug, plasma
[7] = mouse, plasma, 50 mg/kg, PLASMA, 120 min, read-out: concentration of prodrug in plasma
[8] = mouse, plasma, 50 mg/kg, PLASMA, 120 min, read-out: stability: percentage of material observed as intact prodrug, plasma
[9] = mouse, small intestine, 50 mg/kg, SMALL INTESTINE, 30 min, read-out: stability: percentage of material observed as intact prodrug, small intestine
[10] = mouse, small intestine, 50 mg/kg, SMALL INTESTINE, 120 min, read-out: stability: percentage of material observed as intact prodrug, small intestine
[11] = mouse, tumor, 50 mg/kg, TUMOR, 30 min, read-out: stability: percentage of material observed as intact prodrug, tumor

concentration of prodrug in cecum (CECUM, 30 min) [nmol/g]	concentration of prodrug in kidney (KIDNEY, 30 min) [nmol/g]	concentration of prodrug in large intestine (LARGE INTESTINE, 30 min) [nmol/g]	concentration of prodrug in liver (LIVER, 30 min) [nmol/g]	concentration of prodrug in small intestine (SMALL INTESTINE, 30 min) [nmol/g]	concentration of prodrug in small intestine (SMALL INTESTINE, 120 min) [nmol/g]	concentration of prodrug in tumor (TUMOR, 30 min) [nmol/g]	remaining at 0.5 h [1] [%]	remaining at 0.5 h [2] [%]	remaining at 0.5 h [3] [%]	remaining at 0.5 h [4] [%]	concentration at 0.5 h [5] [µM]	remaining at 0.5 h [6] [%]	concentration at 2 h [7] [µM]	remaining at 2 h [8] [%]	remaining at 0.5 h [9] [%]	remaining at 2 h [10] [%]	remaining at 0.5 h [11] [%]	SMILES	further results
6.0	175.8	12.2	770.3	48.2	55.6	6.0	96	98	93	98	41.5	99	4.2	100	83	68	96	Cc1nc2ccc3ccc(CNc4ccc(C(=O)N[C@@H](CCC(=O)O)C(=O)N[C@@H](CCC(=O)O)C(=O)O)c(F)c4)cc3c2c(=O)[nH]1 [Prodrug 1, N-(N-(4(((1,2-dihydro-3-methyl-1-oxobenzo(F)quinazolin-9-yl)methyl)amino)-2-fluorobenzoyl)-L-glutam-1-yl)-L-glutamic acid]	concentration of prodrug in cecum (CECUM, 120 min): 1.2 nmol/g; concentration of prodrug in kidney (KIDNEY, 120 min): 70.3 nmol/g; concentration of prodrug in large intestine (LARGE INTESTINE, 120 min): 1.0 nmol/g; concentration of prodrug in liver (LIVER, 120 min): 579.8 nmol/g; concentration of prodrug in spleen (SPLEEN, 30 min): 23.4 nmol/g; concentration of prodrug in spleen (SPLEEN, 120 min): 1.8 nmol/g; concentration of prodrug in tumor (TUMOR, 120 min): 1.2 nmol/g; remaining at 2 h (mouse, cecum, 50 mg/kg, CECUM, 120 min, read-out: stability: percentage of material observed as intact prodrug, cecum): 76%; remaining at 2 h (mouse, kidney, 50 mg/kg, KIDNEY, 120 min, read-out: stability: percentage of material observed as intact prodrug, kidney): 97%; remaining at 2 h (mouse, large intestine, 50 mg/kg, LARGE INTESTINE, 120 min, read-out: stability: percentage of material observed as intact prodrug, large intestine): 100%; remaining at 2 h (mouse, liver, 50 mg/kg, LIVER, 120 min, read-out: stability: percentage of material observed as intact prodrug, liver): 97%; remaining at 0.5 h (mouse, spleen, 50 mg/kg, SPLEEN, 30 min, read-out: stability: percentage of material observed as intact prodrug, spleen): 100%; remaining at 2 h (mouse, spleen, 50 mg/kg, SPLEEN, 120 min, read-out: stability: percentage of material observed as intact prodrug, spleen): 100%; remaining at 2 h (mouse, tumor, 50 mg/kg, TUMOR, 120 min, read-out: stability: percentage of material observed as intact prodrug, tumor): 76%
2.7	9.0	5.9	42.0	170.2	17.6	2.7	96	96	93	96	33	100	0.3	93	91	47	98	Cc1nc2ccc3ccc(CNc4ccc5c(c4)CN([C@@H](CCC(=O)O)C(=O)N[C@@H](Cc4ccccc4)C(=O)O)C5=O)cc3c2c(=O)[nH]1 [Prodrug 2, N-((S)-4-carboxy-2-(5-(((1,2-dihydro-3-methyl-1-oxoxbenzo(F)quinazolin-9-yl)methyl)amino)-1-oxo-2-isoindolinyl)butanoyl)-L-phenylalanine]	concentration of prodrug in kidney (KIDNEY, 90 min): 1.3 nmol/g; concentration of prodrug in kidney (KIDNEY, 180 min): 0.2 nmol/g; concentration of prodrug in large intestine (LARGE INTESTINE, 90 min): 0.7 nmol/g; concentration of prodrug in large intestine (LARGE INTESTINE, 180 min): 1.3 nmol/g; concentration of prodrug in liver (LIVER, 90 min): 9.1 nmol/g; concentration of prodrug in liver (LIVER, 180 min): 0.8 nmol/g; concentration (PLASMA, 30 min, 50 mg/kg, 30 min, read-out: concentration of prodrug in plasma): 22.1 µM; remaining at 1.5 h (mouse, kidney, 50 mg/kg, KIDNEY, 90 min, read-out: stability: percentage of material observed as intact prodrug, kidney): 98%; remaining at 3 h (mouse, kidney, 50 mg/kg, KIDNEY, 180 min, read-out: stability: percentage of material observed as intact prodrug, kidney): 100%; remaining at 1.5 h (mouse, large intestine, 50 mg/kg, LARGE INTESTINE, 90 min, read-out: stability: percentage of material observed as intact prodrug, large intestine): 60%; remaining at 3 h (mouse, large intestine, 50 mg/kg, LARGE INTESTINE, 180 min, read-out: stability: percentage of material observed as intact prodrug, large intestine): 52%; remaining at 1.5 h (mouse, liver, 50 mg/kg, LIVER, 90 min, read-out: stability: percentage of material observed as intact prodrug, liver): 100%; remaining at 3 h (mouse, liver, 50 mg/kg, LIVER, 180 min, read-out: stability: percentage of material observed as intact prodrug, liver): 100%; concentration at 1.5 h (mouse, plasma, 50 mg/kg, PLASMA, 90 min, read-out: concentration of prodrug in plasma): 5.5 µM; remaining at 1.5 h (mouse, plasma, 50 mg/kg, PLASMA, 90 min, read-out: stability: percentage of material observed as intact prodrug, plasma): 98%; concentration at 3 h (mouse, plasma, 50 mg/kg, PLASMA, 180 min, read-out: concentration of prodrug in plasma): 3.5 µM; remaining at 3 h (mouse, plasma, 50 mg/kg, PLASMA, 180 min, read-out: stability: percentage of material observed as intact prodrug, plasma): 97%
